{
  "source": "patent US20200353038A1",
  "about": "“PIF-TRANSFECTED CELLS AND METHODS OF USE” (BIOINCEPT, LLC, priority 2013, published 2020)",
  "key": {"HEK293 cells": {"system": "HEK293 cells", "test": "Transient transfection in HEK293 cells, toxicity", "format": "cell-based, human", "details": "intracellular expression, cultured for more than 72 hrs"}, "PBMCs": {"system": "PBMCs", "description": "Blood samples without identifiers were obtained from males and nonpregnant females after obtaining consent at MDSPS, WA. The studies were approved by the ethical committee at the institute. From the excess specimen, PBMCs were isolated using standard Ficoll Hypaque, a density gradient method. […] Samples were collected in duplicate at 24 and 48 hrs and used for global mRNA analysis.\nAfter culture, PBMCs were collected and the chemically fragmented cRNA was then hybridized on Affymetrix HGU133 Plus 2.0 human chips in a GeneChip Hybridization Oven 640 (Affymetrix) and screened for 18,400 human genes and expressed-sequence tags, followed by fluorescence labeling with Fluidics Station 450 (Affymetrix) and optical scanning with an Affymetrix GeneChip Scanner 3000 (Codon Biosciences, LP, Houston, Tex.). P0.05 and >2-fold changes were considered as significant. Data is deposited at NCBI Geo (GSE18291).\nFor gene experiments, data was first analyzed using student's t-test, with p<0.05 results, followed by fold-change testing, with a cutoff 2-fold only reported."}, "IDE": {"target": "T1, IDE (Homo sapiens, UniProt P14735)", "T1 construct": "purchased Invitrogen", "test": "ProtoArray binding, IDE"}, "Cass4": {"target": "Cass4 (Homo sapiens, UniProt Q9NQ75)", "sequence (Q9NQ75 whole entry)": "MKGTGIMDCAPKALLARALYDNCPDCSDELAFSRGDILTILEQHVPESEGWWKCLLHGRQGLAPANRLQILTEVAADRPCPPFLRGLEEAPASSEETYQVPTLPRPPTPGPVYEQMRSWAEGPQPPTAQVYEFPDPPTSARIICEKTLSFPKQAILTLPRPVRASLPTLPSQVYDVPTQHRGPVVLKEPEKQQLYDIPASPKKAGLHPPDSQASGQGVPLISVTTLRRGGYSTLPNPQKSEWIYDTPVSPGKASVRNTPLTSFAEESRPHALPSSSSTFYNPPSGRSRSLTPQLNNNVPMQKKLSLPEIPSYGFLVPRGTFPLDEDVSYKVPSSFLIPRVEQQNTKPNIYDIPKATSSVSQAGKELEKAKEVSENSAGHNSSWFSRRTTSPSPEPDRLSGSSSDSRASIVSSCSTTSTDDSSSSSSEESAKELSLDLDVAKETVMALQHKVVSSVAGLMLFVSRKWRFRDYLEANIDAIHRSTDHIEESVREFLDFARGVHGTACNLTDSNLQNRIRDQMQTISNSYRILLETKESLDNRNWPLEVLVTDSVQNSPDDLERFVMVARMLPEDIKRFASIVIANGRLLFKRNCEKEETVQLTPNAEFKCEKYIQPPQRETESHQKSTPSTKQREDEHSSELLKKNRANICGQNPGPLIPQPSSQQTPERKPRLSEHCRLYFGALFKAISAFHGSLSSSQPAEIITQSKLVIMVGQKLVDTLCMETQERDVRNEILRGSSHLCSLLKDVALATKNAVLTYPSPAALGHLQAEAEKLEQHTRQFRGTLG", "details": "ProtoArray, minor binding target", "experimental": "(§1) Unbound probe was washed off, and arrays were assessed by a fluorescence microarray scanner. […] As a negative control, an array was incubated with wash buffer while calmodulin kinase was used as a positive control detected by Alexa Fluor 647-conjugated anti-VS antibody."}, "[1]": {"target": "outer dense fiber of the sperm tail-2 (ODF2L) (Homo sapiens, UniProt Q9ULJ1)", "sequence (Q9ULJ1 whole entry)": "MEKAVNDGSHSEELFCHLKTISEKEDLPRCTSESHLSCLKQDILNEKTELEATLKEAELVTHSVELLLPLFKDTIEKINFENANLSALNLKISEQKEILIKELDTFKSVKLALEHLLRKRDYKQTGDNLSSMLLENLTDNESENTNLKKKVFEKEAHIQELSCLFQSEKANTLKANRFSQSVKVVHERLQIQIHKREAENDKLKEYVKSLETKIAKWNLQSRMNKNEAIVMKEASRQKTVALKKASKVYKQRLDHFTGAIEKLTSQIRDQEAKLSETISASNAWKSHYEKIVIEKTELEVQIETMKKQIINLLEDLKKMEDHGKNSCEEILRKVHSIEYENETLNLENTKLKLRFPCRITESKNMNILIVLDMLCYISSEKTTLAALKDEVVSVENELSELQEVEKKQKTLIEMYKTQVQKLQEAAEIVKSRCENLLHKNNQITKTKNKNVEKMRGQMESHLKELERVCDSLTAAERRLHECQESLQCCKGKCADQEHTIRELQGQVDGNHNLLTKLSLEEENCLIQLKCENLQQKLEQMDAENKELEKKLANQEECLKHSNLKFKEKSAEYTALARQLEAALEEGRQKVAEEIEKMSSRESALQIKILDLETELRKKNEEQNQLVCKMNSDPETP", "details": "ProtoArray, minor binding target", "experimental": "as §1"}, "ITK": {"target": "ITK (Homo sapiens, UniProt Q08881)", "sequence (Q08881 whole entry)": "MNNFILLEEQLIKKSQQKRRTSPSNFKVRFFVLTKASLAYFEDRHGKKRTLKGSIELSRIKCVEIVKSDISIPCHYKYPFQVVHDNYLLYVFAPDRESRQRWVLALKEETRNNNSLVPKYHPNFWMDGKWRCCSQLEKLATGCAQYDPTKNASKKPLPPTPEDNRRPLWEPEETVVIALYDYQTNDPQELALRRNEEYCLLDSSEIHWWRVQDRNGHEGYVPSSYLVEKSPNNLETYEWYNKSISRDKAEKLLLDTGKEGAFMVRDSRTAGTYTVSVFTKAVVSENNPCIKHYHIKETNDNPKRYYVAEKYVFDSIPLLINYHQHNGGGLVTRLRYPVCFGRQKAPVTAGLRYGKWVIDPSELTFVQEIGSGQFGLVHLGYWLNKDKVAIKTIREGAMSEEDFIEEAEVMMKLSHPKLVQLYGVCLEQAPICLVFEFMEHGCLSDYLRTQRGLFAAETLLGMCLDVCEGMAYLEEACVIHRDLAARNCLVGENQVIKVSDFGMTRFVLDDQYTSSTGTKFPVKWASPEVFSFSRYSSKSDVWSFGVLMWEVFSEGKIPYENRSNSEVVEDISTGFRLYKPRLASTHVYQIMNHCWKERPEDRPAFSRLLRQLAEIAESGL", "details": "ProtoArray", "experimental": "as §1"}, "[2]": {"target": "Platelet-Derived Growth Factor-β(PDGFP) (Homo sapiens, UniProt P01127)", "sequence (P01127 82-190)": "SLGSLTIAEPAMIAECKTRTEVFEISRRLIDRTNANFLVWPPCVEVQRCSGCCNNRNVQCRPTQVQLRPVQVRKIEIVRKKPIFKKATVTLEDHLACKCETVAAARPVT", "details": "ProtoArray", "experimental": "as §1"}, "Clorf87": {"target": "Clorf87 (Homo sapiens, UniProt Q8N0U7)", "sequence (Q8N0U7 whole entry)": "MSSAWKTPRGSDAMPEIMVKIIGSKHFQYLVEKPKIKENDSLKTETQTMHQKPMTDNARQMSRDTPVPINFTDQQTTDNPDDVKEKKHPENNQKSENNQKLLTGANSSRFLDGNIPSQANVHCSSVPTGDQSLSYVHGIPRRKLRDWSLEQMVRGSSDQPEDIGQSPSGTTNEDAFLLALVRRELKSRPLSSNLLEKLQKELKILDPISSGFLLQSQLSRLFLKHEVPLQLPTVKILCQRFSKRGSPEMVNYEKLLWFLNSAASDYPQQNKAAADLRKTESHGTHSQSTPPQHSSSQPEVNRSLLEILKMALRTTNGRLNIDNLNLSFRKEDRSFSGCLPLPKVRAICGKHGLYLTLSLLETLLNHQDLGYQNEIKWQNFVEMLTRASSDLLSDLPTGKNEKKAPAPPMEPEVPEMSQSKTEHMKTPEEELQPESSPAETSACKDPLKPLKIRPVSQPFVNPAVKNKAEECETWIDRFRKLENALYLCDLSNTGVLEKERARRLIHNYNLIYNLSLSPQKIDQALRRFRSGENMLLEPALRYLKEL", "details": "ProtoArray, minor binding target", "experimental": "as §1"}, "DAPK3, (ZIPK)": {"target": "DAPK3, (ZIPK) (Homo sapiens, UniProt O43293)", "sequence (O43293 whole entry)": "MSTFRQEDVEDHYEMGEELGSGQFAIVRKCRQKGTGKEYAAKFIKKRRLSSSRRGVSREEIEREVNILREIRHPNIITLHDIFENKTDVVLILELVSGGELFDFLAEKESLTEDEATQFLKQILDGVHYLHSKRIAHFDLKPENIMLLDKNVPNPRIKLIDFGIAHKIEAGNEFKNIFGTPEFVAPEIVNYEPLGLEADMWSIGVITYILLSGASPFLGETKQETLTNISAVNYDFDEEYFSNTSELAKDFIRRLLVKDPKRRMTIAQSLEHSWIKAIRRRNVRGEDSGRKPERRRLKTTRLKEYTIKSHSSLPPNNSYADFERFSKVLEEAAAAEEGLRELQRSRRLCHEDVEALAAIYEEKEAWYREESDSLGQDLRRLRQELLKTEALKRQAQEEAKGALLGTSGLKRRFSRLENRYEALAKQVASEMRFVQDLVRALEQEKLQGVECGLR", "details": "ProtoArray, minor binding target", "experimental": "as §1"}, "[3]": {"target": "Tissue-Specific Transplantation Antigen P35 (FX Enzyme) (Homo sapiens, UniProt Q13630)", "sequence (Q13630 whole entry)": "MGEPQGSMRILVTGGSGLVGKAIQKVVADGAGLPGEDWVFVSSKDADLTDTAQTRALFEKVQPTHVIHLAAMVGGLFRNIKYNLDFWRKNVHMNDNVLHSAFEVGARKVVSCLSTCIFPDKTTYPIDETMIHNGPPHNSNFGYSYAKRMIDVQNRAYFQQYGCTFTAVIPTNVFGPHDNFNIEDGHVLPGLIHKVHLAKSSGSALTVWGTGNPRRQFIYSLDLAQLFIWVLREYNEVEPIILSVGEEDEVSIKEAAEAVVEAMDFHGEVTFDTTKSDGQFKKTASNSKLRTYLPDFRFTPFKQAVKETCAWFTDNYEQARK", "details": "ProtoArray", "experimental": "as §1"}, "NEK11": {"target": "NEK11 (Homo sapiens, UniProt Q8NG66)", "sequence (Q8NG66 whole entry)": "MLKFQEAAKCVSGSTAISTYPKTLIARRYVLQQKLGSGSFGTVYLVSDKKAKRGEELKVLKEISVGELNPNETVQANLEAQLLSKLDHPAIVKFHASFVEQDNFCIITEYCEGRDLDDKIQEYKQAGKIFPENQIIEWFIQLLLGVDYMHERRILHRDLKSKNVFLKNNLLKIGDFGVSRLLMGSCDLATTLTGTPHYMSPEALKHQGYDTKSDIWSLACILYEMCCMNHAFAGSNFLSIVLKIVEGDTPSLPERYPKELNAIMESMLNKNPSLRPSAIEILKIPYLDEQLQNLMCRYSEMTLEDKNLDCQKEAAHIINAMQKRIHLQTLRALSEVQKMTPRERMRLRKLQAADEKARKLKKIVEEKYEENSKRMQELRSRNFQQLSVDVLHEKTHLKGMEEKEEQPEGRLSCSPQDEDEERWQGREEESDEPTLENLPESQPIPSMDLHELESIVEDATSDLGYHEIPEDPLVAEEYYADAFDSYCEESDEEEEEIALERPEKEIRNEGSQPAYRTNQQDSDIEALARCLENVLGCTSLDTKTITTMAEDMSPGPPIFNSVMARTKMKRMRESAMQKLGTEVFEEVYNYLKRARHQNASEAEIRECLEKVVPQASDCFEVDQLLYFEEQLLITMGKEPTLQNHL", "details": "ProtoArray, minor binding target", "experimental": "as §1"}, "female Swiss mice": {"system": "female Swiss mice", "details": "Alzet pump subcutaneously, PIF 4.2 mg/ml (1 mg/kg/die), read days 14-16 pi", "experimental": "30 Swiss female mice and 30 Swiss male mice, 8-10 weeks old, were matched overnight for three consecutive days. The next morning, the presence of a vaginal plug was verified. 20 female Swiss mice positive for the vaginal plug were selected for the experiment.\nMice at days 1-3 post-insemination (pi) were anesthetized with ketamine and domitor 200 μl. […] The mice were located singularly in separated cages. […] At days 6-8 pi, the mice were treated with LPS […] or with PBS. At days 14-16 pi, the mice were euthanized and investigated for vital fetuses and for aborts. Mice with no vital fetuses nor signs of abortion were considered to carry 10 aborts for statistical purposes. The groups were compared with Fisher exact test, p<0.05 was considered significant (FIG. 22)."}, "Kv1.3b": {"system": "Kv1.3b", "sequence (Q13303 40-367 limits assumed)": "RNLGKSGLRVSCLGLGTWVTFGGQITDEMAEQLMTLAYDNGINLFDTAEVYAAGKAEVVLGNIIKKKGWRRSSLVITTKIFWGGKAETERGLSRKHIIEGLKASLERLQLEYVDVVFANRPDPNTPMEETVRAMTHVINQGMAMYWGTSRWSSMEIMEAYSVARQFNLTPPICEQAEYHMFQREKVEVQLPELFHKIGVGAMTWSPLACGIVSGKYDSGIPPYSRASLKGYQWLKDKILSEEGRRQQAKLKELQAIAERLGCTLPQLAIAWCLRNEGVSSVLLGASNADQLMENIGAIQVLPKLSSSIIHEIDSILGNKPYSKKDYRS", "test": "ProtoArray binding, Kv1.3b", "design": "species or system human"}, "[4]": {"system": "9000 human protein targets", "test": "Alexa-PIF interaction with ProtoArray Human Protein Microarrays v5.0", "format": "binding", "details": "PIF-Alexa 647 250 nM and 2.5 pM; protein not named"}, "[5]": {"details": "cell state not given, PIF 50 nM"}, "[6]": {"details": "following co-activation (anti-CD3/anti-CD28), PIF 50 nM"}, "[7]": {"details": "naive cells (by context), PIF 50 nM"}, "[8]": {"details": "naive cells, PIF 50 nM, up to 48 hrs"}},
  "data": [
    {"substance": "DYKDDDDKGGGMVRIKPGSANKPSDDGGYPYDVPDYA (FLAG-(Gly)2-PIF-(Gly)2-HA) [FLAG-HA tagged PIF peptide]", "values": [
      {"measurement": "toxicity or cell death of transfected cells", "setting": "HEK293 cells", "value": "without signs of toxicity or cell death"}
    ]},
    {"substance": "MVRIKPGSANKPSDD [PIF]", "values": [
      {"measurement": "IDE encoding gene expression", "setting": "PBMCs; PBMCs exposed to PIF", "value": "not affected"},
      {"measurement": "Kv1.3b channel genes expression", "setting": "PBMCs; PBMCs exposed to PIF", "value": "only minimally affected"},
      {"measurement": "six additional macropain genes family members, expression (FIG. 21)", "setting": "PBMCs; PBMCs, PIF 50 nM", "value": "upregulated"},
      {"measurement": "ADAM 17 gene expression", "setting": "PBMCs; activated cells (by context), PIF 50 nM", "value": "−2.2", "unit": "fold"},
      {"measurement": "CDC42 gene expression", "setting": "PBMCs; activated cells, PIF 50 nM", "value": "−2.2", "unit": "fold"},
      {"measurement": "MCM2 gene expression", "setting": "PBMCs; activated cells, PIF 50 nM", "value": 2.8, "unit": "fold"},
      {"measurement": "SPEC 1 gene expression", "setting": "PBMCs; activated cells, PIF 50 nM", "value": "−2.2", "unit": "fold"},
      {"measurement": "TSTA3 (FX) gene expression", "setting": "PBMCs; activated cells, PIF 50 nM", "value": 3.6, "unit": "fold"},
      {"measurement": "cell division cycle 25A (CDC25A) gene expression", "setting": "PBMCs; activated cells, PIF 50 nM", "value": 6, "unit": "fold"},
      {"measurement": "osteonectin gene expression", "setting": "PBMCs; activated cells, PIF 50 nM", "value": "−2.2", "unit": "fold"},
      {"measurement": "H2A O/L gene expression (decrease)", "setting": "PBMCs; [5]", "value": 2, "unit": "fold"},
      {"measurement": "H2A gene expression (decrease)", "setting": "PBMCs; [5]", "value": 4.2, "unit": "fold"},
      {"measurement": "H3F3A gene expression", "setting": "PBMCs; [5]", "value": "−3", "unit": "fold"},
      {"measurement": "ATP1B1 gene expression", "setting": "PBMCs; following activation, PIF 50 nM", "value": "−2.4", "unit": "fold"},
      {"measurement": "IGFBP6 gene expression", "setting": "PBMCs; [6]", "value": "−2.4", "unit": "fold"},
      {"measurement": "UDP-glucose dehydrogenase (UGDH) gene expression", "setting": "PBMCs; [6]", "value": "−2", "unit": "fold"},
      {"measurement": "insulin receptor (INSR) gene expression", "setting": "PBMCs; [6]", "value": "−2.8", "unit": "fold"},
      {"measurement": "macropain 26S subunit, non-ATPase, 10 (PSMD10) gene expression", "setting": "PBMCs; [6]", "value": 2.4, "unit": "fold"},
      {"measurement": "SCN12 gene expression", "setting": "PBMCs; [7]", "value": 5.4, "unit": "fold"},
      {"measurement": "SCNA1 (Na+ voltage-gated Al) gene expression", "setting": "PBMCs; [7]", "value": 7.8, "unit": "fold"},
      {"measurement": "ITK expression, in words", "setting": "PBMCs; naive cells as printed (last sentence of b342)", "value": "mildly decreased"},
      {"measurement": "ITK gene expression", "setting": "PBMCs; naive cells, PIF 50 nM", "value": 1.6, "unit": "fold"},
      {"measurement": "K+ channel (KCNK4) gene expression", "setting": "PBMCs; naive cells, PIF 50 nM", "value": 2.8, "unit": "fold"},
      {"measurement": "IGF-binding protein-3 (IGF219 BP3) gene expression", "setting": "PBMCs; [8]", "value": 4.6, "unit": "fold"},
      {"measurement": "insulin-like growth factor-1 (IGF1) gene expression", "setting": "PBMCs; [8]", "value": 2.8, "unit": "fold"},
      {"measurement": "binding to IDE, in words", "setting": "IDE; ProtoArray", "value": "prime PIF peptide target"},
      {"measurement": "binding to Cass4, in words", "setting": "Cass4", "value": "target"},
      {"measurement": "binding to ODF2L, in words", "setting": "[1]", "value": "observed"},
      {"measurement": "binding to ITK, in words", "setting": "ITK", "value": "Targets"},
      {"measurement": "binding to PDGFb, in words", "setting": "[2]", "value": "Targets"},
      {"measurement": "binding to Clorf87, in words", "setting": "Clorf87", "value": "target"},
      {"measurement": "binding to DAPK3 (ZIPK), in words", "setting": "DAPK3, (ZIPK)", "value": "targets"},
      {"measurement": "binding to FX enzyme, in words", "setting": "[3]", "value": "Targets"},
      {"measurement": "binding to NEK11, in words", "setting": "NEK11", "value": "bind"},
      {"measurement": "LPS-induced abortion", "setting": "female Swiss mice; LPS 0.1 pg/gr days 6-8 pi", "value": "decreases"},
      {"measurement": "anesthesia-induced abortion", "setting": "female Swiss mice; ketamine and domitor", "value": "prevents"},
      {"measurement": "binding to Kv1.3b channels, in words", "setting": "Kv1.3b; ProtoArray", "value": "targets"}
    ]},
    {"substance": "PIF-Alexa 647: Alexafluor647 conjugate of synthetic PIF (MVRIKPGSANKPSDD)", "values": [
      {"measurement": "Z score", "setting": "IDE; PIF-Alexa 647 250 nM and 2.5 pM", "value": "greater than 2"},
      {"measurement": "Z-Score of one of the 11 interacting proteins", "setting": "[4]", "value": "greater than 3"},
      {"measurement": "Z score", "setting": "Kv1.3b; Kv1.3b two variants, PIF-Alexa 647 250 nM and 2.5 pM", "value": "greater than 2"}
    ]}
  ]
}
